Reference: US8372834B2, “Compositions and methods for delivery of anti-cancer agents” (University of Wollongong, priority 2007, dated 2013)

Experiments:
[1] = Preliminary stability study of compositions; type: physicochemical; conditions: three weeks, room temperature, protected from light
Protocol: A preliminary assessment of the stability of the compositions was carried out over a period of three weeks. Test samples were manufactured using the FD2 method described above and stored at room temperature. 5-FU is known to be light sensitive and therefore the samples were protected from exposure to light. The samples were monitored at set time intervals for signs of decomposition using a solution of the equivalent concentration of 5-FU in saline (0.9%) as a control. The methods of monitoring the solutions were physical appearance (solid formation etc.), pH and UV-VIS absorbance spectroscopy (266 nm). The 5-FU solution was warmed and sonicated to dissolve any solid 5-FU that had precipitated before pH and absorbance readings.

PC-14 = experiment: In vitro cytotoxicity, MTS cell proliferation assay; type: cell-based; conditions: PC-14 cells
Protocol: (§1) After 72 h, cell proliferation was analysed by the MTS assay and normalised to saline control treatments (100% proliferation). ● 5-FU, ▪ 5-FU:FA, ▴ FD45c, ♦ FD50-7Sc, ? FD100HPc. Dashed lines represent the IC50 for each treatment (GraphPad). Values shown are mean±SD (n=4, except for HCT-116 FD50-7Sc and MDA-MB-231 FD100HPc where n=3)
(§2) In vitro cytotoxicity assays were carried out on 5 different carcinoma cell lines (MDA-MB-231, HCT-116, COLO-201, PC-3 and PC-14) using 3 different compositions of the invention (FD45c, FD50-7Sc and FD100HPc). MDA-MB-231 is a breast cancer cell line, HCT-116 and COLO-201 are colon cancer cell lines, PC-3 is a prostate cancer cell line and PC-14 is a non-small cell lung cancer cell line.
(§3) The levels of 5-FU and FA remained constant in each composition. For comparison, assays were also performed using a combination of 5-FU and FA (5-FU:FA), and also 5-FU only. A summary of IC50 values for all cell lines is presented in Table 1 below, and representative dose-response curves used to generate these IC50 values are presented in FIG. 3.

COLO-201 = experiment: as above; type: cell-based; conditions: COLO-201 cells
Protocol: as §1, §2, §3

HCT-116 = experiment: as above; type: cell-based; conditions: Homo sapiens, HCT-116 cells, 72 h, mean IC50 ± SD, at least 3 independent experiments, read-out: IC50 (μM 5-FU)
Protocol: as §1, §2, §3

PC-3 = experiment: as above; type: cell-based; conditions: Homo sapiens, PC-3 cells, 72 h, mean IC50 ± SD, at least 3 independent experiments, read-out: IC50 (μM 5-FU)
Protocol: as §1, §2, §3

MDA-MB-231 = experiment: as above; type: cell-based; conditions: Homo sapiens, MDA-MB-231 cells, 72 h, mean IC50 ± SD, at least 3 independent experiments, read-out: IC50 (μM 5-FU)
Protocol: as §1, §2, §3

[2] = Homo sapiens, 72 h, MTS assay, mean IC50 ± SD, at least 3 independent experiments, read-out: IC50 (μM 5-FU)

**Q.** With `O=c1[nH]cc(F)c(=O)[nH]1` [Composition 5-FU, 5-fluorouracil] as the molecule, how does the “change in pH over time” value [1] read?
**A.** Its value is “No significant change”.

**Q.** What about the “change in A266 over time (UV-VIS absorbance, 266 nm)” value ([1]; serial dilution) of the same molecule?
**A.** The value was “No overall trend of change”.

**Q.** What about the IC50 (PC-14; [2]) of the same molecule?
**A.** The IC50 was 33.4 ± 12.2 µM.

**Q.** What about the “effectiveness compared to 5-FU:FA” value (PC-14; P=0.0084) of the same molecule?
**A.** Its value is “significantly less effective than 5-FU:FA”.

**Q.** And the “effectiveness compared to 5-FU:FA” value (COLO-201; P=0.0084)?
**A.** Its value is “significantly less effective than 5-FU:FA”.

**Q.** What about the IC50 (COLO-201; [2]) of the same molecule?
**A.** The IC50 was 39.3 ± 13.9 µM.

**Q.** And the IC50 (HCT-116)?
**A.** The IC50 was 4 ± 1.3 µM.

**Q.** And the IC50 (PC-3)?
**A.** The IC50 was 1.4 ± 0.8 µM.

**Q.** What about the IC50 (MDA-MB-231) of the same molecule?
**A.** Its IC50 is 9.1 ± 1.4 µM.
